Patent US20160177395A1, “BIOMARKERS FOR THE PREDICTION OF RENAL INJURY” (priority 2007, published 2016)
“And” between values parts separate entries of the source, which are not always exact repeats. Identical values can stand only once. “Also recorded” adds a separate entry of the source.

Columns and labels:
[1] = tested on: Sprague-Dawley Crl:CD(SD) rats; test: Rat toxicity study, single, 5-day and 28-day treatment (clinical observation, clinical pathology, autopsy, organ weights, histopathology); settings: for Organ weight: compared with controls;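 for all read-outs here: control rats received saline intraperitoneally, and the organs examined were adrenals, brain, kidneys, liver, spleen and thymus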
Method: Control animals were treated intraperitoneal with saline.
Randomization and group allocation: prior to treatment, the animals were assigned to the experimental groups based on their body weight. Mean body weight of each group at randomization was not deviate±20% of the mean population weight. Males and females were randomized separately. For the randomization, a computer program was used.
The day before autopsy, urinalysis was performed and blood samples were taken for hematology and clinical chemistry examinations.
On the day of autopsy the animals were anaesthetized with isoflurane, blood was collected for PBMC isolation then subjected to autopsy. Tissues and organs (adrenals, brain, kidneys, liver, spleen and thymus) were weighed and subjected to gross pathological and histopathological examinations.

[2] = tested on: kidney tissues of treated or untreated rats; test: Real-time qRT-PCR of marker transcripts in kidney tissue panel, discovery stage (Table 22); type: in vivo, rat; parameters: AI502869_DB71_seg0 normalized Real Time PCR expression: unit not given beside the values; settings: for normalized Real Time PCR MMU09507_DB81_seg15 / normalized Real Time PCR MUSCYCG1R_DB81_seg19-20 / normalized Real Time PCR RATRAB13X_DB81_seg15-17 / normalized Real Time PCR RATRAB13X_DB81_seg22 / normalized Real Time PCR W33294_DB81_seg23 / normalized Real Time PCR W33294_DB81_seg44: kidney; for normalized Real Time PCR MUSCYCG1R DB81 seg19-20: test concentration or dose not given here; for normalized Real Time PCR RATRAB13X DB81 seg15-17: test concentration or dose not given here; for normalized Real Time PCR RATRAB13X DB81 seg22: test concentration or dose not given here; for normalized Real Time PCR W33294 DB81 seg23: test concentration or dose not given here; for normalized Real Time PCR W33294 DB81 seg44: test concentration or dose not given here
Method in brief: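 Rat kidney RNA, DNase-treated until PCR-negative, reverse transcribed with SuperscriptII; SYBR Green real-time PCR, 40 cycles, undetected samples set to Ct 41. Relative quantity from efficiency^-Ct (standard-curve efficiency), normalized to the geometric mean of four median-scaled housekeeping genes, then multiplied by a constant factor.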

[3] = 28-day treatment, male and female rats
[4] = female rats, day5, listed as Gent
[5] = rat kidney, day1, individual animals

## Gentamycin
[1]; 5-day treatment
  Autopsy findings: No effect
  Body weight gain: Body weight gain was decreased in females
  Clinical pathology: elevated urea nitrogen levels found in females; also recorded: ♀: ↑↑BUN
  Histopathology / renal damage: No nephrotoxicity was observed; also recorded: No renal damage was found at histopathological examination
  Organ weight: No effect
[1]; 28-day treatment
  Body weight and body weight gain: affected body weight gain of animals in both sexes; also recorded: Effect on body weight and body weight gain was seen
  Histopathology / nephrotoxicity: Signs of nephrotoxicity occurred in all animals of both sexes; also recorded: nephrotoxic effect of the test item was confirmed by histopathology; also recorded: basophilia in the cortex
[1]; 28-day treatment, females
  Decreasing order of nephrotoxicity at histopathological examination: Cisplatin, Cadmium chloride, Gentamycin, Doxorubicin and Tobramycin in females
[1]; [3]
  Autopsy findings: enlarged and discolored kidneys were observed in males; also recorded: Alterations were found in the kidneys; also recorded: ♂♀: ↑↑, pale
  Organ weight: Kidney weight increased in both sexes and Increased weights of kidneys in males and Higher weights of kidneys in females and Weights of spleen were higher in Gentamycin treated males and Decreased thymus weights were found in Gentamycin and Tobramycin treated males and ↑↑
[1]; 28-day treatment, males
  Decreasing order of nephrotoxicity at histopathological examination: Cisplatin, Gentamycin, Tobramycin and Doxorubicin in males
[2]; female rats, day1
  normalized Real Time PCR MMU09507_DB81_seg15: 0.41 and 0.43 and 0.23
  normalized Real Time PCR MUSCYCG1R_DB81_seg19-20: 0.67 and 0.55 and 0.44
  normalized Real Time PCR RATRAB13X_DB81_seg15-17: 0.9 and 0.63 and 0.55
  normalized Real Time PCR RATRAB13X_DB81_seg22: 0.98 and 0.71 and 0.51
  normalized Real Time PCR W33294_DB81_seg23: 1 and 0.51 and 0.94
  normalized Real Time PCR W33294_DB81_seg44: 1.02 and 0.8 and 0.77
[2]; female rats, day5
  normalized Real Time PCR MUSCYCG1R_DB81_seg19-20: 1.41
[2]; [4]
  normalized Real Time PCR MMU09507_DB81_seg15: 0.78 and 0.62 and 1.13
  normalized Real Time PCR MUSCYCG1R_DB81_seg19-20: 1.23 and 1.42
  normalized Real Time PCR RATRAB13X_DB81_seg15-17: 1.68 and 1.5 and 1.59
  normalized Real Time PCR RATRAB13X_DB81_seg22: 2.16 and 2.11 and 1.91
  normalized Real Time PCR W33294_DB81_seg23: 1.64 and 1.96 and 1.51
  normalized Real Time PCR W33294_DB81_seg44: 1.64 and 1.72 and 2.13
[2]; female rats, day28
  normalized Real Time PCR MMU09507_DB81_seg15: 1.38 and 0.96 and 0.7
  normalized Real Time PCR MUSCYCG1R_DB81_seg19-20: 0.56 and 0.74 and 0.42
  normalized Real Time PCR RATRAB13X_DB81_seg15-17: 0.84 and 0.9 and 0.88
  normalized Real Time PCR RATRAB13X_DB81_seg22: 0.68 and 0.56 and 0.57
  normalized Real Time PCR W33294_DB81_seg44: 0.66 and 0.71
[2]; male rats, day1
  normalized Real Time PCR MMU09507_DB81_seg15: 0.56 and 0.32 and 0.37
  normalized Real Time PCR RATRAB13X_DB81_seg22: 0.8 and 0.99 and 0.6
  normalized Real Time PCR W33294_DB81_seg23: 0.57 and 0.74 and 0.61
  normalized Real Time PCR W33294_DB81_seg44: 0.77 and 0.5 and 0.64
[2]; male rats, day5
  normalized Real Time PCR MMU09507_DB81_seg15: 0.71 and 0.41 and 0.68
  normalized Real Time PCR MUSCYCG1R_DB81_seg19-20: 1.43 and 1
  normalized Real Time PCR RATRAB13X_DB81_seg15-17: 1.25 and 0.76 and 1.35
  normalized Real Time PCR RATRAB13X_DB81_seg22: 1.25 and 0.77 and 1.16
  normalized Real Time PCR W33294_DB81_seg23: 1.25 and 0.82 and 0.95
  normalized Real Time PCR W33294_DB81_seg44: 1.12 and 0.93 and 0.94
[2]; male rats, day28
  normalized Real Time PCR MMU09507_DB81_seg15: 0.82 and 0.59 and 0.84
  normalized Real Time PCR MUSCYCG1R_DB81_seg19-20: 0.79 and 0.4 and 0.55
  normalized Real Time PCR RATRAB13X_DB81_seg15-17: 0.77 and 0.76 and 1.22
  normalized Real Time PCR RATRAB13X_DB81_seg22: 0.91 and 0.88 and 0.58
  normalized Real Time PCR W33294_DB81_seg23: 0.57 and 0.8 and 0.67
[2]; [5]
  AA686189_DB71_seg6 normalized Real Time PCR expression: 1.19 and 0.65 and 1.07 and 0.94 and 1.04 and 0.6
  AA799594_DB71_seg0 normalized Real Time PCR expression: 1.25 and 0.72 and 0.93 and 0.57 and 0.95 and 0.92
  AA964541_DB71_seg0 normalized Real Time PCR expression: 1.35 and 0.74 and 1.29 and 0.9 and 1.19 and 0.44
  AI045075_DB71_seg6 normalized Real Time PCR expression: 1.5 and 0.93 and 0 and 1.07 and 1.03 and 0.78
  AI454051_DB71_seg0 normalized Real Time PCR expression: 0.9 and 0.75 and 0.57 and 0.4 and 0.54 and 0.79
  AI502869_DB71_seg0 normalized Real Time PCR expression: 0.83 and 0.61 and 0.53 and 1.53 and 0.99 and 0.76
